# PubChem BioAssay (NCI)
#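 A five-concentration, 48-hour dose response in 96-well plates underlies each endpoint, interpolated linearly between surrounding concentrations. Here, GI50 denotes the concentration required for 50% inhibition of growth. The concentration for full growth arrest is given as TGI.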
# What was measured:
# Test in all cases: growth of human tumour cells (NCI), 48 h
# [1] = tested on: HT29 colon
# [2] = tested on: UO-31 renal
# [3] = tested on: SK-MEL-2 melanoma
# [4] = tested on: NCI-H226 lung
# [5] = tested on: MDA-N
# [6] = tested on: SW-620 colon
# [7] = tested on: HCC-2998 colon
# [8] = tested on: NCI-H23 lung
# [9] = tested on: ACHN renal
# [10] = tested on: HCT-15 colon
# [11] = tested on: T-47D breast
# [12] = tested on: M14 melanoma
# [13] = tested on: A549 NSCLC
# [14] = tested on: OVCAR-8 ovarian
# [15] = tested on: SF-295 CNS
# [16] = tested on: MCF7 breast
# [17] = tested on: HOP-62 NSCLC
# [18] = tested on: DU-145 prostate
# [19] = tested on: CAKI-1 renal
# [20] = tested on: HL-60(TB) leukemia
# [21] = tested on: RPMI-8226 leukemia
# [22] = tested on: CCRF-CEM leukemia
# [23] = tested on: TK-10 renal
# [24] = tested on: HCT-116 colon
# [25] = tested on: 786-0 renal
# [26] = tested on: SNB-19 CNS
# [27] = tested on: OVCAR-4 ovarian
# [28] = tested on: COLO 205 colon
# [29] = tested on: NCI-H522 lung
# [30] = tested on: IGROV1 ovarian
# [31] = tested on: MALME-3M melanoma
# [32] = tested on: SF-268 CNS
# [33] = tested on: K-562 leukemia
# [34] = tested on: A498 renal
# [35] = tested on: OVCAR-5 ovarian
# [36] = tested on: PC-3 prostate
# [37] = tested on: SF-539 CNS
# [38] = tested on: SK-OV-3 ovarian
# [39] = tested on: UACC-62 melanoma
# [40] = tested on: SK-MEL-28 melanoma
# [41] = tested on: EKVX NSCLC
# [42] = tested on: U251 CNS
# [43] = tested on: SNB-75 CNS
# [44] = tested on: MOLT-4 leukemia
# [45] = tested on: SK-MEL-5 melanoma
# [46] = tested on: SN12C renal
# [47] = tested on: NCI-H460 lung
# [48] = tested on: OVCAR-3 ovarian
# [49] = tested on: RXF 393 renal
# [50] = tested on: HOP-92 NSCLC
# [51] = tested on: MDA-MB-231 breast
# [52] = tested on: UACC-257 melanoma
# [53] = tested on: KM12 colon
# [54] = tested on: LOX IMVI melanoma
# [55] = tested on: HS 578T breast
# [56] = tested on: SR leukemia
# [57] = tested on: MDA-MB-435
# [58] = tested on: NCI/ADR-RES ovarian
# [59] = tested on: BT-549 breast
structure (smiles),measurement,setting,value
CC1=NN(C(=O)CC(=O)Nc2cccc(C)c2)C(=O)C1N=Nc1ccc(S(=O)(=O)CCOS(=O)(=O)O)cc1 (stereo not given),TGI,[1],11.5 µM
same,TGI,[2],10.5 µM
same,TGI,[3],2.67 µM
same,TGI,[4],6.79 µM
same,TGI,[5],0.902 µM
same,TGI,[6],14.5 µM
same,TGI,[7],5.51 µM
same,TGI,[8],24.6 µM
same,TGI,[9],17.1 µM
same,TGI,[10],4.83 µM
same,TGI,[11],> 49.5 µM
same,TGI,[12],17.3 µM
same,TGI,[13],50.6 µM
same,TGI,[14],> 22.4 µM
same,TGI,[15],11.3 µM
same,TGI,[16],13.4 µM
same,TGI,[17],25.9 µM
same,TGI,[18],> 100 µM
same,TGI,[19],2.96 µM
same,TGI,[20],> 100 µM
same,TGI,[21],> 100 µM
same,TGI,[22],> 100 µM
same,TGI,[23],26.2 µM
same,TGI,[24],12.6 µM
same,TGI,[25],12.9 µM
same,TGI,[26],22.3 µM
same,TGI,[27],27 µM
same,TGI,[28],8.42 µM
same,TGI,[29],0.835 µM
same,TGI,[30],12.4 µM
same,TGI,[31],13.6 µM
same,TGI,[32],28 µM
same,TGI,[33],> 100 µM
same,TGI,[34],37.1 µM
same,TGI,[35],66.2 µM
same,TGI,[36],11.2 µM
same,TGI,[37],6.49 µM
same,TGI,[38],17 µM
same,TGI,[39],9.34 µM
same,TGI,[40],19.7 µM
same,TGI,[41],> 64.6 µM
same,TGI,[42],13.6 µM
same,TGI,[43],19.7 µM
same,TGI,[44],> 31.7 µM
same,TGI,[45],2.88 µM
same,TGI,[46],5.51 µM
same,TGI,[47],11.8 µM
same,TGI,[48],14.9 µM
same,TGI,[49],22 µM
same,TGI,[50],17.9 µM
same,TGI,[51],14.8 µM
same,TGI,[52],23.1 µM
same,TGI,[53],13.9 µM
same,TGI,[54],5.47 µM
same,TGI,[55],15.3 µM
same,TGI,[56],> 100 µM
COc1ccc(-c2ccc(C(=O)C=P(c3ccccc3)(c3ccccc3)c3ccccc3)cc2)cc1,TGI,[1],19.4 µM
same,TGI,[2],13 µM
same,TGI,[4],27.7 µM
same,TGI,[5],28.9 µM
same,TGI,[6],37.8 µM
same,TGI,[7],15.2 µM
same,TGI,[8],51 µM
same,TGI,[9],30.7 µM
same,TGI,[10],29.6 µM
same,TGI,[11],62.3 µM
same,TGI,[12],31.6 µM
same,TGI,[13],25.9 µM
same,TGI,[15],40.3 µM
same,TGI,[16],30.2 µM
same,TGI,[17],43.9 µM
same,TGI,[18],39.4 µM
same,TGI,[19],42 µM
same,TGI,[20],6.77 µM
same,TGI,[21],5.01 µM
same,TGI,[22],> 100 µM
same,TGI,[23],47.1 µM
same,TGI,[24],32.3 µM
same,TGI,[25],37.5 µM
same,TGI,[57],30 µM
same,TGI,[26],> 100 µM
same,TGI,[27],25 µM
same,TGI,[28],13.9 µM
same,TGI,[31],43.9 µM
same,TGI,[58],37.5 µM
same,TGI,[32],71.4 µM
same,TGI,[33],20.6 µM
same,TGI,[34],31.9 µM
same,TGI,[35],44.8 µM
same,TGI,[36],49 µM
same,TGI,[37],35.9 µM
same,TGI,[38],34.9 µM
same,TGI,[39],28.9 µM
same,TGI,[40],32 µM
same,TGI,[41],38.6 µM
same,TGI,[42],31.9 µM
same,TGI,[44],10.9 µM
same,TGI,[45],22.4 µM
same,TGI,[46],28.5 µM
same,TGI,[47],20.5 µM
same,TGI,[48],20.1 µM
same,TGI,[49],27 µM
same,TGI,[50],34 µM
same,TGI,[51],30.7 µM
same,TGI,[52],45.2 µM
same,TGI,[53],36.6 µM
same,TGI,[54],31.5 µM
same,TGI,[55],67.6 µM
same,TGI,[56],73.6 µM
CC(C)(C)C[C@H]1N[C@@H](C(=O)NC2CCC(O)CC2)[C@H](c2cccc(Cl)c2F)[C@@]12C(=O)Nc1cc(Cl)ccc12 (stereo not given in full),GI50,[1],4.34 µM
same,TGI,[1],19.9 µM
same,GI50,[2],0.646 µM
same,TGI,[2],11.1 µM
same,GI50,[3],4.93 µM
same,TGI,[3],19.7 µM
same,GI50,[4],0.238 µM
same,TGI,[4],1.04 µM
same,GI50,[6],12.3 µM
same,TGI,[6],29.4 µM
same,GI50,[7],3.64 µM
same,TGI,[7],13.1 µM
same,GI50,[8],11.1 µM
same,TGI,[8],29.2 µM
same,GI50,[9],0.375 µM
same,TGI,[9],10.1 µM
same,GI50,[59],3.8 µM
same,TGI,[59],14.1 µM
same,GI50,[10],3.92 µM
same,TGI,[10],18.2 µM
same,GI50,[11],5.98 µM
same,TGI,[11],22.8 µM
same,GI50,[12],4.05 µM
same,TGI,[12],17.3 µM
same,GI50,[13],0.778 µM
same,TGI,[13],16.4 µM
same,GI50,[14],14.8 µM
same,TGI,[14],39.4 µM
same,GI50,[15],3.46 µM
same,TGI,[15],13.6 µM
same,GI50,[16],0.228 µM
same,TGI,[16],2.98 µM
same,GI50,[17],11.5 µM
same,TGI,[17],27.7 µM
same,GI50,[18],11.8 µM
same,TGI,[18],24.3 µM
same,GI50,[19],0.162 µM
same,TGI,[19],12.4 µM
same,GI50,[20],2.66 µM
same,TGI,[20],7.06 µM
same,GI50,[21],2.63 µM
same,TGI,[21],8.41 µM
same,GI50,[22],3.51 µM
same,TGI,[22],15.4 µM
same,GI50,[23],11.9 µM
same,TGI,[23],25 µM
same,GI50,[24],0.41 µM
same,TGI,[24],11.9 µM
same,GI50,[25],4.22 µM
same,TGI,[25],15.4 µM
same,GI50,[57],4.8 µM
same,TGI,[57],16.6 µM
same,GI50,[26],5.93 µM
same,TGI,[26],21.3 µM
same,GI50,[27],5.6 µM
same,TGI,[27],18.7 µM
same,GI50,[28],3.67 µM
same,TGI,[28],16 µM
same,GI50,[29],7.89 µM
same,TGI,[29],22.9 µM
same,GI50,[30],2.07 µM
same,TGI,[30],16.7 µM
same,GI50,[31],0.131 µM
same,TGI,[31],3.98 µM
same,GI50,[58],14 µM
same,TGI,[58],33.9 µM
same,GI50,[32],12 µM
same,TGI,[32],25.8 µM
same,GI50,[33],4.15 µM
same,TGI,[33],18.7 µM
same,GI50,[34],1.11 µM
same,TGI,[34],10.3 µM
same,GI50,[35],3.88 µM
same,TGI,[35],15.2 µM
same,GI50,[36],3.65 µM
same,TGI,[36],13.5 µM
same,GI50,[37],3.12 µM
same,TGI,[37],11.5 µM
same,GI50,[38],11.2 µM
same,TGI,[38],23.8 µM
same,GI50,[39],0.235 µM
same,TGI,[39],2.46 µM
same,GI50,[40],3.28 µM
same,TGI,[40],11.7 µM
same,GI50,[41],3.15 µM
same,TGI,[41],14.2 µM
same,GI50,[42],7.86 µM
same,TGI,[42],21.9 µM
same,GI50,[43],3.78 µM
same,TGI,[43],17.9 µM
same,GI50,[44],0.314 µM
same,TGI,[44],1.81 µM
same,GI50,[45],1.41 µM
same,TGI,[45],3.19 µM
same,GI50,[46],6.26 µM
same,TGI,[46],21.2 µM
same,GI50,[47],0.678 µM
same,TGI,[47],13.4 µM
same,GI50,[48],8.68 µM
same,TGI,[48],21 µM
same,GI50,[49],3.38 µM
same,TGI,[49],17.2 µM
same,GI50,[50],3.28 µM
same,TGI,[50],15 µM
same,GI50,[51],1.82 µM
same,TGI,[51],4.41 µM
same,GI50,[52],1.16 µM
same,TGI,[52],13.7 µM
same,GI50,[53],6.85 µM
same,TGI,[53],22.1 µM
same,GI50,[54],0.577 µM
same,TGI,[54],18.1 µM
same,GI50,[55],6.51 µM
same,TGI,[55],56.8 µM
same,GI50,[56],0.189 µM
same,TGI,[56],5.45 µM
